The values that follow come from patent publication US6586216B2 (Purdue Research Foundation, priority 1997, dated 2003).

pKd: −log10 of the molar value. Values joined by “and” are separate entries in the source; they are usually repeats but may differ in a detail not shown here. Equal values may be shown once. Read-outs that look alike come from different tables or passages of the source.

In test [1] the target is T1, wild type B. subtilis glutamine PRPP amidotransferase (Bacillus subtilis, UniProt P00497).
T1 construct: Enzymes of the B. subtilis class are synthesized with an NH2 terminal propeptide and an Fe—S center; made in house; host or cells: E. coli strain TX158 (purF) with plasmid pGZ1
T1 sequence (P00497 12-476): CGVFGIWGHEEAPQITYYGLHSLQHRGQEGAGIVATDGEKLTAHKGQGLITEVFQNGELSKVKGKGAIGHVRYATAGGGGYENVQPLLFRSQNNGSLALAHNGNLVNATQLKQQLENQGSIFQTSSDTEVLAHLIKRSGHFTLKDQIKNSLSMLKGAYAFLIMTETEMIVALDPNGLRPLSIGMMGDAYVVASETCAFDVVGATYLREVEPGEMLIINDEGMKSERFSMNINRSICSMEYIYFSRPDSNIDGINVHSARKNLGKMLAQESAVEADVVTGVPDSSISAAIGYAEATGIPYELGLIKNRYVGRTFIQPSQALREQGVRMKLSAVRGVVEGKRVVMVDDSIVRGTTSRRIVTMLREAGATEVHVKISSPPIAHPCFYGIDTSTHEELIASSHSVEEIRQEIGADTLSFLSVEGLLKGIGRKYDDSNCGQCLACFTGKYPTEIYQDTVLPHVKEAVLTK
The test is described as follows: Nucleotide binding by equilibrium dialysis. Here is the method: Nucleotide binding was determined by equilibrium dialysis using chambers of 150 μL that were separated by a 12000-14000 molecular weight dialysis membrane. […] In some experiments, the chambers with radioactive nucleotide also contained a fixed concentration of a second non-radioactive nucleotide. The other chamber contained 50 mM Tris-HCl (pH 7.5) and 50-200 μM enzyme, calculated as the subunit concentration, in a volume of 100 μL. Dialysis was carried out for 20 h at room temperature (˜22° C.) in a rotating apparatus. Samples of 80 μL were retrieved from each chamber and were counted for radioactivity. All experiments were performed in an anaerobic glovebox. […] Equilibrium binding data were fit to the Hill equation (Y=C [free ligand]^n/[…]+[free ligand]^n, where Y is the fractional saturation, C is the binding capacity, Kd is the dissociation constant, and n is the Hill coefficient) by nonlinear regression using Ultrafit software (Biosoft, Cambridge, UK).

Test [2] concerns the target T2, glutamine PRPP amidotransferase S283A mutant enzyme (Bacillus subtilis, UniProt P00497, S294A).
T2 construct: Enzymes of the B. subtilis class are synthesized with an NH2 terminal propeptide and an Fe—S center; made in house; host or cells: E. coli strain TX158 (purF) with plasmid pBsF/S283A
The class given is biochemical. The settings on record: for higher concentration required for 50% inhibition compared to wild type: ADP-GMP mixture. As for the experimental part:
(§1) Enzyme activity was assayed by measuring the initial rate of formation of the product glutamate. […] Incubation was at 37° C. for 6 min. […] Reactions were quenched in a boiling water bath for 2 min, and glutamate was determined by the glutamate dehydrogenase method.
(§2) Inhibition by nucleotides was determined by the standard assay to which varied concentrations of nucleotide were added. Synergistic inhibition was determined by varying the concentration of one nucleotide in the presence of a fixed concentration of a second nucleotide. Relative activity (see FIG. 1) refers to the enzyme activity at a given concentration of the varied nucleotide relative to that in the absence of the varied nucleotide. I0.5 values were calculated from plots of relative activity versus varied nucleotide concentration.
(§3) These modified forms of amidotransferase were analyzed to determine the impact of the mutations on end-product inhibition and enzymatic activity. Inhibition by nucleotides was determined as described in Example 1.

Test [3] deals with T3, glutamine PRPP amidotransferase R307Q mutant enzyme (Bacillus subtilis, UniProt P00497, R318Q).
T3 construct: Enzymes of the B. subtilis class are synthesized with an NH2 terminal propeptide and an Fe—S center; made in house; host or cells: E. coli strain TX158 (purF) with plasmid pBsF/R307Q
The class given is biochemical. Here is the method: as §1, §2, §3

The target of test [4] is T4, glutamine PRPP amidotransferase K305Q mutant enzyme (Bacillus subtilis, UniProt P00497, K316Q).
T4 construct: Enzymes of the B. subtilis class are synthesized with an NH2 terminal propeptide and an Fe—S center; made in house; host or cells: E. coli strain TX158 (purF) with plasmid pBsF/K305Q
The class given is biochemical. As for the experimental part:
as §1, §2, §3

The mark [5] stands for this setting: no fixed nucleotide, at saturation ± standard error.

Usually Hill coefficient stands for a measure of the steepness of the concentration-response curve. A word on the pKd: it is the Kd on a negative log10 scale, so that one unit is a factor of ten.

T3 sequence (P00497 12-476 R318Q): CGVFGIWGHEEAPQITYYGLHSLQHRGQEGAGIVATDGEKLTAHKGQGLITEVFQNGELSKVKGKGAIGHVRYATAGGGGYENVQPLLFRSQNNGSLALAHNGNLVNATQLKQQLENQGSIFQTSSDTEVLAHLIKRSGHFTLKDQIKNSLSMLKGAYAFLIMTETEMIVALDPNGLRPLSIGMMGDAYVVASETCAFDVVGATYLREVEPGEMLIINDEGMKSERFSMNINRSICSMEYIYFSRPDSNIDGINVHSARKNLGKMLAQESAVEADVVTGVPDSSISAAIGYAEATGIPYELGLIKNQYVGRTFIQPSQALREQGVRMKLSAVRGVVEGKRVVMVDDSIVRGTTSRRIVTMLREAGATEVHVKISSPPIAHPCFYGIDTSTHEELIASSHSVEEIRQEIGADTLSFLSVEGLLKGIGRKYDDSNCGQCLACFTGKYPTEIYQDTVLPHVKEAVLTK
T4 sequence (P00497 12-476 K316Q): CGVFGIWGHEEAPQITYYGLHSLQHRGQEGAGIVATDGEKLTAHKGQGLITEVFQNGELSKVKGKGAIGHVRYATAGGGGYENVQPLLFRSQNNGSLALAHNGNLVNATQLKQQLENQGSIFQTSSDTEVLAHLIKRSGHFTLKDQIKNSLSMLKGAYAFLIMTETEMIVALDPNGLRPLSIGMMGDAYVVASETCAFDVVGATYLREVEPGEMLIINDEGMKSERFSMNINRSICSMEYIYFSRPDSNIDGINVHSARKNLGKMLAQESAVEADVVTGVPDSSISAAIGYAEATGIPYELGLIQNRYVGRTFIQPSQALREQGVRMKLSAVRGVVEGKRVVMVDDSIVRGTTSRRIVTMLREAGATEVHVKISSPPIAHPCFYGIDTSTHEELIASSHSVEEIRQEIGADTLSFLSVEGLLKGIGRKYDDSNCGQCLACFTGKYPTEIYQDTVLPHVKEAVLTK
T2 sequence (P00497 12-476 S294A): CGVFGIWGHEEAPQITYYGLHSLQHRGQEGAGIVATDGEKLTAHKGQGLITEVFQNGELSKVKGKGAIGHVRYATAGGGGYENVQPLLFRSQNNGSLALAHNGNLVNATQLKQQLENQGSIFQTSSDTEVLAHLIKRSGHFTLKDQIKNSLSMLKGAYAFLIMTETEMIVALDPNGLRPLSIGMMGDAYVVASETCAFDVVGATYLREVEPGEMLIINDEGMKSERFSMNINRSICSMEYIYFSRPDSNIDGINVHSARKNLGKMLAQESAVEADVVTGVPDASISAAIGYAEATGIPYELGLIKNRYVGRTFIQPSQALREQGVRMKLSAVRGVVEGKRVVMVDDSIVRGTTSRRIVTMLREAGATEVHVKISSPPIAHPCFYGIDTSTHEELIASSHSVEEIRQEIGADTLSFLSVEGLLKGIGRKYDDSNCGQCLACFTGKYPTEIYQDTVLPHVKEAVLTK

As to `Nc1ncnc2c1ncn2[C@@H]1O[C@H](COP(=O)(O)OP(=O)(O)O)[C@@H](O)[C@H]1O` [ADP], the “synergistic binding (decrease of Kd by second nucleotide)” value in test [1] (ADP-GMP pair) was 20 fold. Further, in test [1] (GMP fixed at either 0.25 or 1.0 mM), the equiv bound result is listed as “approximately 1 equiv”. Also, the Capacity in test [1] (fixed GMP 0.25 mM) is 0.82 ± 0.11 equivalents bound per subunit; in test [1] (fixed GMP 1.0 mM), 0.94 ± 0.14 equivalents bound per subunit; in test [1] (setting [5]) it was 1.83 equivalents bound per subunit and 1.83 ± 0.26 equivalents bound per subunit. In addition, the Hill coefficient was 1.8 ± 0.8 in test [1] (fixed GMP 0.25 mM); 1.7 ± 0.9 in test [1] (fixed GMP 1.0 mM); 1.8 and 1.8 ± 0.65 in test [1] (no fixed nucleotide, binding). The “higher concentration required for 50% inhibition compared to wild type” value in test [2] turned out to be 30 fold. The syn. in test [2] (fixed GMP 0.50 mM) is recorded as 5.0; in test [3] (fixed GMP 0.50 mM) it was 12.0; in test [3] (fixed GMP 5.0 mM) it was 156.0; in test [4] (fixed GMP 0.50 mM) it was 2.6; in test [4] (fixed GMP 5.0 mM), 97.0.
Consider `Nc1ncnc2c1ncn2[C@@H]1O[C@H](COP(=O)(O)O)[C@@H](O)[C@H]1O` [AMP], for which the negative-log Kd (pKd) in test [1] (Kd, no fixed nucleotide, apparent Kd, half-saturation of A and C sites) was 3.67 and < 3.30. Further, in test [1] (by GMP or ADP), the “increase in binding affinity by second nucleotide” value is recorded as 2-3 fold. Further, the Hill coefficient was 2.3 ± 1.2 in test [1] (fixed ADP 0.25 mM); 2.1 ± 0.80 in test [1] (fixed GMP 1.0 mM); 3.4 and 3.4 ± 1.8 in test [1] (no fixed nucleotide, binding). For the same molecule, the Capacity entry in test [1] (fixed ADP 0.5 mM) was “approximately 0.4 equivalents bound per subunit”; in test [1] (setting [5]), 1.57 equivalents bound per subunit and 1.57 ± 0.27 equivalents bound per subunit.
On to `Nc1nc2c(ncn2[C@@H]2O[C@H](COP(=O)(O)O)[C@@H](O)[C@H]2O)c(=O)[nH]1` [GMP], for which, in test [1] (ADP bound to the A site), the “increased C site binding affinity relative to IMP and AMP” value stood at 3 fold. Moreover, the Capacity in test [1] (fixed ADP 0.5 mM) is 1 equivalents bound per subunit and 0.98 ± 0.10 equivalents bound per subunit. For the same molecule, the Hill coefficient in test [1] (fixed ADP 0.5 mM) worked out at 2.1 ± 1.0. The “Kd of GMP for the free enzyme, estimated assuming 20-fold synergism” value in test [1] (no fixed nucleotide) was “approximately 500 μM”. For the same molecule, in test [1] (no fixed nucleotide, apparent Kd, half-saturation of A and C sites), the Kd result was “too weak to detect”. For the same molecule, in test [2], the “higher concentration required for 50% inhibition compared to wild type” value is recorded as 13 fold. Besides, the syn. in test [2] (fixed ADP 0.5 mM) was determined as 3.3; in test [2] (fixed ADP 2.5 mM), 3.9; in test [3] (fixed ADP 0.5 mM), 15.0; in test [3] (fixed ADP 2.5 mM) it was 66.0; in test [4] (fixed ADP 0.5 mM), 8.3; in test [4] (fixed ADP 2.5 mM), 38.0. For the same molecule, the “I0.5 increase relative to wild type” value in test [2] (single nucleotide) is “similar”.
